Measurements: patent US11014961B2, “Self-labeling miniproteins and conjugates comprising them” (priority 2017, dated 2021)
No end group written: not given here.

Columns and labels:
proteinase K = target: T1, proteinase K (Parengyodontium album, UniProt P06873); assay: Protease digestion with proteinase K (LC-MS fraction remaining); assay type: in vitro ADME; conditions: 100 μM peptide, with 10×CA (1 mM CA)
T1 construct: purchased Amresco
Method: Reactions were performed using 100 μM peptide with […] of proteinase K for general cleavage with the addition of 1 mM CA for C11A and C11S digestions. Reactions were quenched with 49.75% water, 49.75% ACN and 0.5% TFA at selection time point and analyzed by LCMS. TIC-based integrated peak areas were used to determine the amount of material in a given time point normalized to the starting amount. These normalized values there then concerted to fraction remaining and plotted as shown.

[1] = Thermal melting followed by circular dichroism at 222 nm; assay type: physicochemical; conditions: CD at 222 nm
Method: All experiments were performed at room temperature (˜23.5° C.) using a Jasco J-1500 spectrometer at MIT's Biophysical Instrumentation Facility (BIF). General conditions used were 10 mM sodium phosphate buffer at pH 7.45 with 5 mM TCEP (if a cysteine was present) with 50 μM peptide. CD measurements with C11S and C11A versions of Gen4 (SEQ ID NOs: 138 and 137, respectively) used the same conditions, without TCEP but with varying amount of CA (50 μM up to 500 μM depending on the desired mole ratio). Temperature melt data was obtained using a 0.5° C./minute ramp with data collected at 222 nm. […] For CD of Gen 1 (MP01; SEQ ID NO: 13), Gen1 H19L (MP01-H19L; SEQ ID NO: 62), Gen1 3 ala (MP01-T8/D10/S14A; SEQ ID NO: 69), Gen2 (MP01-Gen2; SEQ ID NO: 71) and Gen3_1 (MP01-Gen3_1; Gen 2-A17E; SEQ ID NO: 116) in their labeled and nonlabeled states, data was obtained in 12.5 mM HEPES, 50 mM NaCl, 2.5 mM MgCl2 and 2.5 mM CaCl2 at pH 7.45 with 5 mM TCEP at 50 µM peptide with or without ˜55 μM CA that had reacted for ˜2 days at room temperature. The CA labeled versions were not purified post reaction and were analyze in their reaction mixture.
Lacking an apparent cysteine pKa modulation, the basis for Gen4's high reactivity again came into question. Both C11A (SEQ ID NO: 134) and C11S (SEQ ID NO: 135) variants were synthesized and assayed them for CA-mediated structural alteration via CD. […]

[2] = Second order rate constant of the reaction between miniprotein (MP) and capture agent (CA), LC-MS TIC peak integration; assay type: biochemical; conditions: for Second order rate constant: 0.1 mM MP, 0.5 mM CA
[3] = Labeling conversion of MP with the selection capture agent (LC-MS TIC); assay type: biochemical; conditions: 0.5 mM CA, 0.1 mM MP, 5 mM TCEP, 1× selection buffer, pH 7.4
Method: All 10 putative self-labeling MPs were chemically synthesized (MP01 and MP02 were additionally made with the full C-terminal constant region). To determine the importance of the C-terminal tag, a kinetic analysis on MP01 was conducted comparing the sequence with and without the tag. […] The remainder of the MPs all reacted with varying second order rate constants and to differing product distributions from multiple cysteine labeling sites (Table 3). […] Of the sequences containing multiple cysteines, all reacted to differing extents. […] On the other hand, MP08 (SEQ ID NO: 53) reacted sluggishly (0.04 μM^−1 s^−1) to produce singly and doubly labeled species. The sole sequence containing three cysteines, MP05 (SEQ ID NO: 44), yielded a mixture of labeled species within an 8-hour reaction—primarily existing with either 2 or 3 labels with a rapid initial labeling process (0.93±0.11 μM^−1 s^−1). Finally, MP01, 07 and 10 (SEQ ID NOs: 13, 52, and 59, respectively) were probed via proteolytic digest-LC-MS/MS analysis, this confirmed that the cysteines were labeled and not an alternative amino acid. […] Conditions used were 0.5 mM CA, 0.1 mM MP, 5 mM TCEP, 1× selection buffer, pH 7.4.

[4] = Labeling conversion of MP with the modified capture agent (LC-MS TIC); assay type: biochemical; conditions: 0.5 mM mCA, 0.1 mM MP, 5 mM TCEP, 1× selection buffer, pH 7.4
Method: A solution consisting of 5 mM carboxy-(PEG)12-thiol, 500 mM pentafluorophenyl sulfide, 20 mM triphenylphosphine and 230 mM DIEA in acetonitrile was vortexed and left at room temperature for 4 hours. The reaction was then diluted with 10.6× volume of 95% A: 5% B, solid phase extracted and lyophilized. The resulting material was analyzed by LCMS (method 2). This product will later be referred to as mCA (modified CA).
All 10 putative self-labeling MPs were chemically synthesized (MP01 and MP02 were additionally made with the full C-terminal constant region). To determine the importance of the C-terminal tag, a kinetic analysis on MP01 was conducted comparing the sequence with and without the tag. […] The remainder of the MPs all reacted with varying second order rate constants and to differing product distributions from multiple cysteine labeling sites (Table 3). […] Of the sequences containing multiple cysteines, all reacted to differing extents. […] On the other hand, MP08 (SEQ ID NO: 53) reacted sluggishly (0.04 μM^−1 s^−1) to produce singly and doubly labeled species. The sole sequence containing three cysteines, MP05 (SEQ ID NO: 44), yielded a mixture of labeled species within an 8-hour reaction—primarily existing with either 2 or 3 labels with a rapid initial labeling process (0.93±0.11 μM^−1 s^−1). […]

[5] = 5 mM TCEP, 1× selection buffer pH 7.4, RT, a: average of three MP concentrations, c: labeled 1-3 times, d: labeled 1-2 times

T1 sequence (P06873 106-384): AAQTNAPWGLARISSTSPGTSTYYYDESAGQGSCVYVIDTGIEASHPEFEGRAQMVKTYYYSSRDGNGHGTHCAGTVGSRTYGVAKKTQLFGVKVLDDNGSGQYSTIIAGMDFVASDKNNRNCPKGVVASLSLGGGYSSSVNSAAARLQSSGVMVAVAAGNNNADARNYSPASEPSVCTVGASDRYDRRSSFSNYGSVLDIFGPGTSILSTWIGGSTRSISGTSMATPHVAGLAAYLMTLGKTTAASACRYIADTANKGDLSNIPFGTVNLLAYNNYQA

MNQKYKMAKASFFAFLEHLKKRKLYPMSG-NH2 [Gen4(C11S)]
protease stability in presence of CA (noncovalent) (proteinase K): improved protease stability
thermal melting behaviour (in words) with CA ([1]; 50 μM peptide with 10×CA (500 μM)): gradually increasing CD signal albeit with a shift to higher temperatures

MHQKYKMTKDCFFSFLAHHKKRKLYPMSG-NH2 [MP01]
Second order rate constant ([2]; 5 mM TCEP, 1× selection buffer pH 7.4, RT): 0.34 M⁻¹ s⁻¹
Second order rate constant [2, 5]: 0.34 ± 0.06^a/ M^−1 s^−1
second order rate constant, second MP01 construct ([2]; MP01 construct with C-terminal tag (per Table 3 footnote b), standard conditions): 0.28 M⁻¹ s⁻¹
Second order rate constant ([2]; footnote b: construct with the full length C-terminal region (-SGSLGHHHHHHRL)): 0.28 ± 0.02^b M^−1 s^−1
conversion with selection CA [3]: 83%
conversion with modified CA (mCA) [4]: 91%

MHNAYLRKSMRQLCYFRRTLHNIHVMSHRG-NH2 [MP10]
rate enhancement over a non-selected Cys peptide [2]: ~529 ×
Second order rate constant [2, 5]: 1.66 ± 0.48^a M^−1 s^−1
conversion with selection CA [3]: 91%
conversion with modified CA (mCA) [4]: 96%

MNQKYKMAKACFFAFLEHLKKRKLYPMSG-NH2 [MP01-Gen4]
reactivity relative to a random cysteine containing peptide [2]: ~4×10^3 times
second order rate constant relative to the initial MP01 scaffold [2]: ~100 times
reaction rate with ammonium sulfate ([2]; 2 μM ammonium sulfate (so in the source)): 3.9 M⁻¹ s⁻¹
reaction rate with sodium chloride ([2]; 2 μM sodium chloride (so in the source)): 6.1 M⁻¹ s⁻¹
reactivity under denaturant guanidinium chloride ([2]; 2-3 M guanidinium chloride, pH 7.45): near complete ablation of reactivity
rate constant with TMAO ([2]; trimethylamine N-oxide (TMAO) at 0.5 μM (so in the source)): ~9.7 M⁻¹ s⁻¹
rate constant with TMAO ([2]; trimethylamine N-oxide (TMAO) at 1 μM (so in the source)): ~7.5 M⁻¹ s⁻¹
thermal melting behaviour (in words) ([1]; 4-95° C.): broad, gradually increasing trend
